In this assay the target is S. pneumoniae Topoisomerase IV ATPase (ParE) (Streptococcus pneumoniae serotype 4, UniProt Q59961). In words: S. pneumoniae Topoisomerase IV ATPase inhibition. In kind it is biochemical. The conditions noted are these: values marked * are an average of two or more data points, read-out: % Inh (13 μM) of S. pneumoniae Topoisomerase IV ATPase. Summed up: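 Malachite green/ammonium molybdate phosphate detection, A650. 1.25 nM ParE, 160 μM ATP, sheared salmon sperm DNA 5 μg/ml, 20 mM Tris pH 8.0, 8.0 mM MgCl2. Controls: 2% DMSO = 0%, 20 μM EDTA = 100% inhibition; IC50 over 10 concentrations.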
Chain of S. pneumoniae Topoisomerase IV ATPase (ParE) (Q59961 whole entry): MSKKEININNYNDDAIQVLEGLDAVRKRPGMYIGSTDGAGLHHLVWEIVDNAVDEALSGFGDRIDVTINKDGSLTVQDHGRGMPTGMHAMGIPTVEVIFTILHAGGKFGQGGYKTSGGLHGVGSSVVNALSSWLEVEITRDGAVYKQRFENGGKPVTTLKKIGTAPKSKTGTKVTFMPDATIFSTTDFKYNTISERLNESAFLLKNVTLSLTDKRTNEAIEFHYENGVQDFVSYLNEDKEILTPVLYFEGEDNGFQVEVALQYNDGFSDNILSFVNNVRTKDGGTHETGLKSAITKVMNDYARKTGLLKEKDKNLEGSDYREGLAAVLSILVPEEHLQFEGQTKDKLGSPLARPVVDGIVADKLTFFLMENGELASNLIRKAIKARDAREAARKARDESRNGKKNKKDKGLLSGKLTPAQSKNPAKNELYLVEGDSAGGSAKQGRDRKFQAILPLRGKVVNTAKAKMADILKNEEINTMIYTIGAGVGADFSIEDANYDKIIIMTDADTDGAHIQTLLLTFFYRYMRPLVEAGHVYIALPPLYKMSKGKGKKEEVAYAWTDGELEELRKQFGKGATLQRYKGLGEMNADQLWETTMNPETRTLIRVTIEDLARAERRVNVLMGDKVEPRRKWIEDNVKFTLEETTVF
For `COc1ncc(-c2cnc(Nc3cc(C)cc(C)c3)nc2-n2ccc(C(F)(F)F)n2)cc1C(=O)NS(C)(=O)=O` [Example 898, 5-(2-(3,5-dimethylphenylamino)-4-(3-(trifluoromethyl)-1H-pyrazol-1-yl)pyrimidin-5-yl)-2-methoxy-N-(methylsulfonyl)nicotinamide], the inhibition at 13 µM is 100%.
`COc1ncc(-c2cnc(Nc3cc(C)cc(C)c3)nc2-n2nc(C(F)(F)F)cc2C)cc1C(=O)NS(C)(=O)=O` [Example 899, 5-(2-(3,5-dimethylphenylamino)-4-(5-methyl-3-(trifluoromethyl)-1H-pyrazol-1-yl)pyrimidin-5-yl)-2-methoxy-N-(methylsulfonyl)nicotinamide]: the inhibition at 13 µM was found to be 97%.
The figure for `COc1cc(F)cc(Nc2ncc(-c3cnc(OC)c(C(=O)NS(C)(=O)=O)c3)c(-n3nc(C(F)(F)F)cc3C)n2)c1` [Example 900, 5-(2-(3-fluoro-5-methoxyphenylamino)-4-(5-methyl-3-(trifluoromethyl)-1H-pyrazol-1-yl)pyrimidin-5-yl)-2-methoxy-N-(methylsulfonyl)nicotinamide] is 100%.
Consider `COc1cc(Nc2ncc(-c3cnc(OC)c(C(=O)NS(C)(=O)=O)c3)c(-n3ccc(C(F)(F)F)n3)n2)cc(OC)c1` [Example 901, 5-(2-(3,5-dimethoxyphenylamino)-4-(3-(trifluoromethyl)-1H-pyrazol-1-yl)pyrimidin-5-yl)-2-methoxy-N-(methylsulfonyl)nicotinamide], for which the inhibition at 13 µM came to 97%.
As to `COc1cc(Nc2ncc(-c3cnc(OC)c(C(=O)NS(C)(=O)=O)c3)c(-n3nc(C(F)(F)F)cc3C)n2)cc(C(F)(F)F)c1` [Example 902, 2-methoxy-5-(2-(3-methoxy-5-(trifluoromethyl)phenylamino)-4-(5-methyl-3-(trifluoromethyl)-1H-pyrazol-1-yl)pyrimidin-5-yl)-N-(methylsulfonyl)nicotinamide], the inhibition at 13 µM came out at 97%.
On to `COc1cc(Nc2ncc(-c3cnc(OC)c(C(=O)NS(C)(=O)=O)c3)c(-n3nc(C(F)(F)F)cc3C)n2)cc(OC)c1` [Example 909, 5-(2-(3,5-dimethoxyphenylamino)-4-(5-methyl-3-(trifluoromethyl)-1H-pyrazol-1-yl)pyrimidin-5-yl)-2-methoxy-N-(methylsulfonyl)nicotinamide], for which the inhibition at 13 µM was 100%.
The figure for `COc1cc(Cl)c(C)cc1Nc1ncc(-c2cccc(/C=C/C(=O)O)c2)c(NCCCN(C)C)n1` [Example 911, (E)-3-(3-(2-(4-chloro-2-methoxy-5-methylphenylamino)-4-(3-(dimethylamino)propylamino)pyrimidin-5-yl)phenyl)acrylic acid] is 58%.
`COCCCNc1nc(Nc2ccc(F)c(Cl)c2)ncc1-c1nc(C(=O)O)cs1` [Example 912, 2-(2-(3-chloro-4-fluorophenylamino)-4-(3-methoxypropylamino)pyrimidin-5-yl)thiazol-4-carboxylic acid]: the inhibition at 13 µM was 99%.
Turning to `COc1cc(Nc2ncc(-c3cncc(C(=O)O)c3)c(-n3nc(C(F)(F)F)cc3C)n2)cc(C(F)(F)F)c1` [Example 913, 5-(2-(3-methoxy-5-(trifluoromethyl)phenylamino)-4-(5-methyl-3-(trifluoromethyl)-1H-pyrazol-1-yl)pyrimidin-5-yl)nicotinic acid], the inhibition at 13 µM was determined as 100%.
As for `COc1cc(F)cc(Nc2ncc(-c3cncc(C(=O)O)c3)c(-n3ccc(C(F)(F)F)n3)n2)c1` [Example 914, 5-(2-(3-fluoro-5-methoxyphenylamino)-4-(3-(trifluoromthyl)-1H-pyrazol-1-yl)pyrimidin-5-yl)nicotinic acid], the inhibition at 13 µM stood at 100%.
The figure for `COc1cc(F)cc(Nc2ncc(-c3cnc(OC)c(C(=O)O)c3)c(-n3nc(C(F)(F)F)cc3C)n2)c1` [Example 915, 5-(2-(3-fluoro-5-methoxyphenylamino)-4-(5-methyl-3-(trifluoromethyl)-1H-pyrazol-1-yl)pyrimidin-5-yl)-2-methoxynicotinic acid] is 100%; for `COc1cc(F)cc(Nc2ncc(-c3cncc(C(=O)O)c3)c(-n3nc(C(F)(F)F)cc3C)n2)c1` [Example 916, 5-(2-(3-fluoro-5-methoxyphenylamino)-4-(5-methyl-3-(trifluoromethyl)-1H-pyrazol-1-yl)pyrimidin-5-yl)nicotinic acid] it is 99%.
For the molecule `COc1ncc(-c2cnc(Nc3cc(Cl)cc(C#N)c3)nc2-n2ccc(C(F)(F)F)n2)cc1C(=O)O` [Example 917, 5-(2-(3-chloro-5-cyanophenylamino)-4-(3-(trifluoromethyl)-1H-pyrazol-1-yl)pyrimidin-5-yl)-2-methoxynicotinic acid], the inhibition at 13 µM worked out at 100%.
On to `COc1cc(Nc2ncc(-c3cc(C(=O)O)c(=O)n(C)c3)c(-n3nc(C(F)(F)F)cc3C)n2)cc(OC)c1` [Example 918, 5-(2-(3,5-dimethoxyphenylamino)-4-(5-methyl-3-(trifluoromnethyl)-1H-pyrazol-1-yl)poyrimidin-5-yl)-1-methyl-2-oxo-1,2-dihydropyridine-3-carboxylic acid], for which the inhibition at 13 µM amounted to 100%.
The figure for `CCn1cc(-c2cnc(Nc3cc(OC)cc(OC)c3)nc2-n2nc(C(F)(F)F)cc2C)cc(C(=O)O)c1=O` [Example 919, 5-(2-(3,5-dimethoxyphenylamino)-4-(5-methyl-3-(trifluoromethyl)-1H-pyrazol-1-yl)pyrimidin-5-yl)-1-ethyl-2-oxo-1,2-dihydropyridine-3-carboxylic acid] is 99%; for `COc1cc(F)cc(Nc2ncc(-c3cc(C(=O)O)c(=O)n(C)c3)c(-n3ccc(C(F)(F)F)n3)n2)c1` [Example 920, 5-(2-(3-fluoro-5-methoxyphenylamino)-4-(3-(trifluoromethyl)-1H-pyrazol-1-yl)pyrimidin-5-yl)-1-methyl-2-oxo-1,2-dihydropyridine-3-carboxylic acid] it is 100%; for `COc1cc(F)cc(Nc2ncc(-c3cc(C(=O)O)c(=O)n(C)c3)c(-n3nc(C(F)(F)F)cc3C)n2)c1` [Example 921, 5-(2-(3-fluoro-5-methoxyphenylamino)-4-(5-methyl-3-(trifluoromethyl)-1H-pyrazol-1-yl)pyrimidin-5-yl)-1-methyl-2-oxo-1,2-dihydropyridine-3-carboxylic acid] it is 99%.
For the molecule `Cc1cc(C)cc(Nc2ncc(-c3cc(C(=O)O)c(=O)n(C)c3)c(-n3ccc(C(F)(F)F)n3)n2)c1` [Example 922, 5-(2-(3,5-dimethylphenylamino)-4-(3-(trifluoromethyl)-1H-pyrazol-1-yl)pyrimidin-5-yl)-1-methyl-2-oxo-1,2-dihydropyridine-3-carboxylic acid], the inhibition at 13 µM stood at 100%.
The figure for `COc1cc(F)cc(Nc2ncc(-c3cnc(OC)c(C(=O)O)c3)c(-n3ccc(C(F)(F)F)n3)n2)c1` [Example 923, 5-(2-(3-fluoro-5-methoxyphenylamino)-4-(3-(trifluoromethyl)-1H-pyrazol-1-yl)pyrimidin-5-yl)-2-methoxynicotinic acid] is 100%; for `Cc1cc(C(F)(F)F)nn1-c1nc(Nc2ccc(F)c(Cl)c2)ncc1-c1cncc(C(N)=O)c1` [Example 924, 5-(2-(3-chloro-4-fluorophenylamino)-4-(5-methyl-3-(trifluoromethyl)-1H-pyrazol-1-yl)pyrimidin-5-yl)nicotinamide] it is 97%.

Source of the values: US20100137313A1 (ASTRAZENECA AB, priority 2008, published 2010).
